{"source": "patent US20230381139A1", "about": "“METHODS OF TREATING AND/OR PREVENTING ALZHEIMER’S DISEASE WITH R-CARVEDILOL” (priority 2020, published 2023)", "key": {"[1]": {"tested_on": "hippocampal CA3-CA1 pathway of 3×TG+/− mice", "assay": "Long-term potentiation recording in hippocampal slices from treated 3×TG+/− mice", "assay_type": "in vivo, mouse", "settings": "brain slices from 12-15 months old 3×TG+/− mice, 3.2 mg/kg/day for one month; vs DMSO", "experimental": "(§1) Schaffer collateral fibers were stimulated at the CA3 subfield to record field excitatory postsynaptic potentials (fEPSPs) in the CA1 stratum radiatum of transverse hippocampal slices ([…]) from all genotypes and drug-treated mice at different ages. After recovering at room temperature for 1 h (or 2 h for brain slices from drug-treated mice), hippocampal slices were allowed to recover in the recording chamber for additional 10 min. To evaluate basal synaptic transmission, different stimulation strengths (0 μA to 200 μA in steps of 20 μA) were applied and plotted fEPSP slopes versus the current input to compare the slope of input/output (I/O) curves of fEPSP. In the experiments that followed, stimulus current was adjusted so that fEPSP stabilized at 40-50% of maximum. Baseline was recorded for at least […] until the differences among fEPSP slopes were within 10%. Long-term potentiation (LTP) was induced using a tetanic high-frequency stimulation (HFS; 4 trains of 100 pulses at 100 Hz, with 20-sec intervals). Synaptic responses were recorded for at least 60 min after tetanization and quantified as the slope of the evoked fEPSP as percentage of the baseline."}, "Aβ": {"tested_on": "Aβ", "assay": "Aβ accumulation (immunohistochemical staining and immunoblotting) in 5×FAD+/− mice", "assay_type": "in vivo, mouse", "settings": "5×FAD+/− mice 3-4, 4-5 and 6-7 months old after 1-month treatment with 3.2 mg/kg/day; vs DMSO", "experimental": "(§2) Adult genetically engineered mice, 5×FAD^+/− (Oakley et al., 2006), RyR2-E4872Q^+/− (EQ^+/−) (Chen et al., 2014), 5×FAD^+/−/RyR2-E4872Q^+/− (5×FAD^+/−/EQ^+/−), and wildtype (WT) littermates of both sexes were used. R-carvedilol (R-CV) (at doses of 0.8, 1.6 or 3.2 mg/kg/day), racemic carvedilol (3.2 mg/kg/day), and vehicle control (DMSO) were delivered to 5×FAD^+/− mice in drinking water for one month, starting at different ages before (2-3 months old) or after (3-4 months old) the occurrence of AD pathologies (Oakley et al., 2006). To assess the effects of genetically and pharmacologically limiting RyR2 open time on the prevention and rescue of AD deficits in different stages (early, moderate, and late) of AD progression, animals at different ages (from 2-15 months) were used. As reported (Oakley et al., 2006), there was an age-dependence of AD progression in the 5×FAD^+/− mice. No sex-dependent differences in AD progression in these mice was observed. For 2-photon Ca^2+ imaging experiments, 5×FAD, RyR2 WT, and RyR2 mutant mice were cross-bred with the heterozygous Thy1-GCaMP6f transgenic mice (Chen et al., 2012; Chen et al., 2013) (GP5.17, JAX 025393) to express the GCaMP6f Ca^2+ sensing probe (driven by the Thy1 promotor) in hippocampal neurons in each of the genotypes used.\nImmunoblotting analysis was carried out using the method described previously (Rosen et al., 2010). […]"}, "[2]": {"tested_on": "hippocampal CA3-CA1 pathway of 5×FAD+/− mice", "assay": "Long-term potentiation / fEPSP recording in hippocampal slices from treated 5×FAD+/− mice", "assay_type": "in vivo, mouse", "settings": "vs DMSO", "experimental": "as §2, with “As reported (Oakley et al., 2006), there was an age-dependence of AD progression in the 5×FAD^+/− mice. No sex-dependent differences in AD progression in these mice was observed.” left out\nas §1"}, "[3]": {"tested_on": "RyR2-mediated Ca2+ release", "assay": "Ex vivo two-photon Ca2+ imaging of caffeine-induced Ca2+ release in CA1 neurons of brain slices from treated 5×FAD+/− mice", "parameters": "species or system mouse", "settings": "CA1 pyramidal neurons in brain slices of 4-5 months old 5×FAD+/− mice treated for 1 month; caffeine 40 mM; vs DMSO-treated"}}}
{"smiles": "COc1ccccc1OCCNC[C@@H](O)COc1cccc2[nH]c3ccccc3c12", "note": "[R-carvedilol, R-(+)-carvedilol]", "values": [{"measurement": "hippocampal LTP (potentiation of fEPSP slope)", "setting": "[1]", "result": "significantly enhanced"}, {"measurement": "Aβ accumulation (plaques, total Aβ and Aβ (1-42) levels)", "setting": "Aβ", "result": "without affecting"}, {"measurement": "LTP impairment", "setting": "[2]; 3.2 mg/kg/day for one month started at 2-3 months of age (before AD symptoms), slices at 3-4 months", "result": "prevented"}, {"measurement": "LTP impairment", "setting": "[2]; 3.2 mg/kg/day for one month started at 3-4 months of age (after AD symptom), slices at 4-5 months", "result": "rescued"}, {"measurement": "reduced basal synaptic transmission (fEPSP slope vs stimulus intensity)", "setting": "[2]; 5×FAD+/− hippocampal brain slices, 3-4, 4-5 and 6-7 months old treated mice", "result": "restored"}, {"measurement": "LTP deficit", "setting": "[2]; 6-7 months old 5×FAD+/− mice after 1-month treatment with 3.2 mg/kg/day", "result": "rescues"}, {"measurement": "Caffeine-induced Ca2+ release", "setting": "[3]", "result": "markedly reduced"}]}
